Tested on: NBD1/3D
Assay: Aggregation analysis using differential static light scattering (DSLS), NBD1 thermal stability
Assay type: binding, Human
Conditions: ΔTagg versus DMSO control; compound at 100 μM
In short: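 Purified NBD1 at 0.2 mg/ml in S200 buffer (pH 7.6, 2 mM ATP, 5 mM MgCl2, 1% glycerol) was heated with compound at 1 °C/min to 70 °C. Tagg taken from the light-scattering curve inflection point; ΔTagg = compound Tagg minus mean DMSO control Tagg.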

Row | SMILES | DSLS NBD1/3D Human Stability delta-T (° C.) @ 100 (μM)
1 | CC(c1cnc(-c2cc(Oc3c(F)cc4[nH]ccc4c3CC(F)(F)F)ccc2F)[nH]1)c1cccc(CCC(=O)O)c1F (single isomer, unassigned) [Example 128A, 3-(2-fluoro-3-(1-(2-(2-fluoro-5-((6-fluoro-4-(2,2,2-trifluoroethyl)-1H-indol-5-yl)oxy)phenyl)-1H-imidazol-5-yl)ethyl)phenyl)propanoic acid] | B (B: 5-10° C.)
2 | Cc1c(Oc2cccc(-c3ncc(C(O)c4cccc(C5CC5C(=O)O)c4)[nH]3)c2)ccc2[nH]ccc12 (stereo not shown) [Example 176, 2-(3-(hydroxy(2-(3-((4-methyl-1H-indol-5-yl)oxy)phenyl)-1H-imidazol-5-yl)methyl)phenyl)cyclopropane-1-carboxylic acid] | B (B: 5-10° C.)
3 | Cc1c(Oc2ccc(F)c(-c3nnc(Cc4cccc(N5CC(C(=O)O)C5)c4)[nH]3)c2)c(F)cc2[nH]ccc12 [Example 249, 1-(3-((5-(2-Fluoro-5-((6-fluoro-4-methyl-1H-indol-5-yl)oxy)phenyl)-4H-1,2,4-triazol-3-yl)methyl)phenyl)azetidine-3-carboxylic acid] | C (C: ≤5° C.)
4 | CC(Cc1cccc(C(C)c2cnc(-c3cc(Oc4c(F)cc5[nH]ccc5c4F)ccc3F)[nH]2)c1F)C(=O)O (single isomer, unassigned) [Example 137B, 3-(3-(1-(2-(5-((4,6-difluoro-1H-indol-5-yl)oxy)-2-fluorophenyl)-1H-imidazol-5-yl)ethyl)-2-fluorophenyl)-2-methylpropanoic acid] | B (B: 5-10° C.)
5 | COC(=O)/C=C/c1cccc(Cn2ccc(-c3cccc(Oc4ccc5[nH]ccc5c4CO)c3)n2)c1 [Example 7, Methyl (E)-3-(3-((3-(3-((4-(hydroxymethyl)-1H-indol-5-yl)oxy)phenyl)-1H-pyrazol-1-yl)methyl)phenyl)acrylate] | C (C: ≤5° C.)
6 | CC(O)(c1cccc(CC(F)C(=O)O)c1)c1cnc(-c2cc(Oc3c(F)cc4[nH]ccc4c3F)ccc2F)[nH]1 (stereo not shown) [Example 202, 3-(3-(1-(2-(5-((4,6-difluoro-1H-indol-5-yl)oxy)-2-fluorophenyl)-1H-imidazol-5-yl)-1-hydroxyethyl)phenyl)-2-fluoropropanoic acid] | A (A: T ≥ 10° C.)
7 | Cc1c(Oc2ccc(F)c(-c3ncc(C(C)(C#N)c4cccc(CCC(=O)O)c4)[nH]3)c2)c(F)c(F)c2[nH]ccc12 (stereo not shown) [Example 56, 3-(3-(1-cyano-1-(2-(5-((6,7-difluoro-4-methyl-1H-indol-5-yl)oxy)-2-fluorophenyl)-1H-imidazol-5-yl)ethyl)phenyl)propanoic acid] | B (B: 5-10° C.)
8 | CO[C@]1(C)C[C@@](c2cccc(CCC(=O)O)c2)(c2c[nH]c(-c3cc(Oc4c(F)cc5[nH]ccc5c4S(C)(=O)=O)ccc3F)n2)C1 [Example 71, 3-(3-((1r,3r)-1-(2-(2-fluoro-5-((6-fluoro-4-(methylsulfonyl)-1H-indol-5-yl)oxy)phenyl)-1H-imidazol-4-yl)-3-methoxy-3-methylcyclobutyl)phenyl)propanoic acid] | A (A: T ≥ 10° C.)
9 | Cc1c(Oc2ccc(F)c(-c3ncc(C(C)(C)c4cccc(CCC(=O)O)c4)[nH]3)c2)c(F)cc2[nH]ccc12 [Example 144, 3-(3-(2-(2-(2-fluoro-5-((6-fluoro-4-methyl-1H-indol-5-yl)oxy)phenyl)-1H-imidazol-5-yl)propan-2-yl)phenyl)propanoic acid] | B (B: 5-10° C.)
10 | Cc1c(Oc2ccc(F)c(-c3ccn(Cc4cccc(CCC(=O)O)c4)n3)c2)c(F)cc2[nH]ccc12 [Example 14, 3-(3-((3-(2-fluoro-5-((6-fluoro-4-methyl-1H-indol-5-yl)oxy)phenyl)-1H-pyrazol-1-yl)methyl)phenyl)propanoic acid] | B (B: 5-10° C.)
11 | CS(=O)(=O)c1c(Oc2ccc(F)c(-c3ncc(C4(c5cccc(CCC(=O)O)c5)CC(F)(F)C4)[nH]3)c2)c(F)cc2[nH]ccc12 [Example 78, 3-(3-(3,3-Difluoro-1-(2-(2-fluoro-5-((6-fluoro-4-(methylsulfonyl)-1H-indol-5-yl)oxy)phenyl)-1H-imidazol-5-yl)cyclobutyl)phenyl)propanoic acid] | A (A: T ≥ 10° C.)
12 | CC(c1cnc(-c2cc(Oc3c(F)cc4[nH]ccc4c3CCP(C)(C)=O)ccc2F)[nH]1)c1cccc(CCC(=O)O)c1F (single isomer, unassigned) [Example 135B, 3-(3-(1-(2-(5-((4-(2-(dimethylphosphoryl)ethyl)-6-fluoro-1H-indol-5-yl)oxy)-2-fluorophenyl)-1H-imidazol-5-yl)ethyl)-2-fluorophenyl)propanoic acid] | C (C: ≤5° C.)
13 | Cc1c(Oc2ccc(F)c(-c3nc(Cc4cccc(CCC(=O)O)c4)nn3C)c2)c(F)cc2[nH]ccc12 [Example 242, 3-(3-((5-(2-Fluoro-5-((6-fluoro-4-methyl-1H-indol-5-yl)oxy)phenyl)-1-methyl-1H-1,2,4-triazol-3-yl)methyl)phenyl)propanoic acid] | B (B: 5-10° C.)
14 | Cc1c(Oc2ccc(F)c(-c3nc(C4(c5cccc(CCC(=O)O)c5)CCCCC4)c[nH]3)c2)c(F)cc2[nH]ccc12 [Example 147, 3-(3-(1-(2-(2-fluoro-5-((6-fluoro-4-methyl-1H-indol-5-yl)oxy)phenyl)-1H-imidazol-4-yl)cyclohexyl)phenyl)propanoic acid] | B (B: 5-10° C.)
15 | Cc1c(Oc2ccc(F)c(-c3ncc(C(C)(O)c4cccc(CCC(=O)O)c4)[nH]3)c2)c(F)cc2[nH]cc(Cl)c12 (stereo not shown) [Example 201, 3-(3-(1-(2-(5-((3-chloro-6-fluoro-4-methyl-1H-indol-5-yl)oxy)-2-fluorophenyl)-1H-imidazol-5-yl)-1-hydroxyethyl)phenyl) propanoic acid] | B (B: 5-10° C.)
16 | COP(=O)(Cc1cccc(Cn2ccc(-c3cccc(Oc4ccc5[nH]ccc5c4CO)c3)n2)c1)OC [Example 12, dimethyl (3-((3-(3-((4-(hydroxymethyl)-1H-indol-5-yl)oxy)phenyl)-1H-pyrazol-1-yl)methyl)benzyl)phosphonate] | C (C: ≤5° C.)
17 | Cc1c(Oc2cccc(-c3ccn(C(C)c4cccc(CCC(=O)O)c4)n3)c2)ccc2[nH]ccc12 (stereo not shown) [Example 2, 3-(3-(1-(3-(3-((4-methyl-1H-indol-5-yl)oxy)phenyl)-1H-pyrazol-1-yl)ethyl)phenyl)propanoic acid] | B (B: 5-10° C.)
18 | CC(C)(c1c[nH]c(-c2cc(Oc3c(F)cc4[nH]ccc4c3Cl)ccc2F)n1)c1cccc(CCC(=O)O)c1F [Example 164, 3-(3-(2-(2-(5-((4-chloro-6-fluoro-1H-indol-5-yl)oxy)-2-fluorophenyl)-1H-imidazol-4-yl)propan-2-yl)-2-fluorophenyl)propanoic acid] | B (B: 5-10° C.)
19 | CS(=O)(=O)c1c(Oc2ccc(F)c(-c3ncc(Cc4ccc5c(c4)CC(C(=O)O)C5)[nH]3)c2)c(F)cc2[nH]ccc12 (single isomer, unassigned) [Example 83A, 5-((2-(2-Fluoro-5-((6-fluoro-4-(methylsulfonyl)-1H-indol-5-yl)oxy)phenyl)-1H-imidazol-5-yl)methyl)-2,3-dihydro-1H-indene-2-carboxylic acid] | B (B: 5-10° C.)
